From patent publication US7759373B2, “Large conductance calcium-activated K channel opener” (Mitsubishi Tanabe Pharma Corporation, priority 2001, dated 2010)

Key:
[1] = tested on: isolated rabbit urinary bladder; experiment: Relaxation effect on potassium-induced contraction of isolated rabbit urinary bladder; assay type: cell-based; conditions: Oryctolagus cuniculus; 50% relaxation concentration; high-K+ (30 mM) pre-contracted rabbit bladder strips; relaxation as percentage of the maximum produced by 0.1 mM papaverine; read-out: EC50 value range
Procedure: Relaxation effect on potassium-induced contraction of isolated rabbit urinary bladder
Urinary bladder was isolated from Male NZW rabbits (2.0-3.5 kg) and immersed in ice-cold Krebs-bicarbonate solution (in mM: 118 NaCl, 4.7 KCl, 1.2, 2.5 CaCl2, MgSO4, 1.2 KH2PO4, 11 glucose, 25 NaHCO3). The urinary bladder was cut into longitudinal strips (5 mm length, 3-4 mm width) after mucosal layer was removed. Preparations were mounted in organ baths containing 10 ml of Krebs solution maintained at 37° C. and gassed with 95% O2/5% CO2. Accordingly, preparations were stretched with an initial tension of 2.0±1.0 g, and changes in isometric tension were measured by force-displacement transducer. The preparations were pre-contracted by changing organ-bath solution into high-K^+ (30 mM) Krebs solution (in mM: 92.7 NaCl, 30 KCl, 1.2, 2.5 CaCl2, MgSO4, 1.2 KH2PO4, 11 glucose, 25 NaHCO3).
After stable tension was obtained, compounds were added into organ baths cumulatively (10^−8M-10^−4M). The effects of compounds were expressed as a percentage of the maximum relaxation produced by 0.1 mM papaverine. 50% relaxation concentration (EC50) was calculated and EC50 value range (μM) of the compounds of the present invention was shown in the following Table 64 with a rank of A, B or C. These ranges are as mentioned below. 3≧C≧1≧B≧0.5≧A

[2] = tested on: rhythmic bladder contractions induced by substance P; experiment: Inhibitory effect on the rhythmic bladder contractions induced by substance P in anesthetized rats; assay type: in vivo, rat; conditions: time during which frequency of rhythmic contraction was completely inhibited, 0.25 mg/kg of the compound, substance P infusion
How it was run: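 Urethane-anesthetized female Sprague-Dawley rats with rhythmic bladder contractions driven by i.v. substance P (0.33 μg/kg/min). Compound given i.v. in saline/0.5% Tween 80 once contractions stable 15 min; intravesical pressure monitored, duration of 100% inhibition ranked A ≥20, B ≥10, C <10 min.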

Row | EC50 [1] [nM] | Structure (SMILES) | 100% inhibition time range [2]
1 | ≤ 500 | Cc1csc(-c2nc(CC(=O)O)c(-c3ccc(Cl)s3)o2)c1 [Preparation Example 478] | B (A≧20>B≧10>C (minute))
2 | ≤ 500 | Clc1ccc(-c2ncc(-c3cccnc3)[nH]2)s1 [Preparation example 25] | B (A≧20>B≧10>C (minute))
3 | 1000 to 3000 | CCCc1nc(-c2ccc(F)cc2)[nH]c1-c1ccccc1 [Preparation example 88] | B (A≧20>B≧10>C (minute))
4 | ≤ 500 | O=C(O)Cc1nc(-c2cc3ccccc3s2)oc1-c1cccs1 [Preparation Example 267] | C (A≧20>B≧10>C (minute))
5 | 1000 to 3000 | O=C(O)Cc1nc(-c2ccc3occc3c2)oc1-c1ccsc1 [Preparation Example 255] | B (A≧20>B≧10>C (minute))
6 | 1000 to 3000 | O=C(O)Cc1oc(-c2cc3ccccc3s2)nc1-c1ccc(Cl)s1 [Preparation Example 503] | A (A≧20>B≧10>C (minute))
7 | 500 to 1000 | CCc1c(-c2cccnc2)nc(-c2ccc(F)cc2)n1CC [Preparation example 104] | A (A≧20>B≧10>C (minute))
8 | ≤ 500 | O=C(O)Cc1nc(-c2ccc3c(c2)OCCO3)oc1-c1ccc(Cl)s1 [Preparation Example 283] | C (A≧20>B≧10>C (minute))
9 | 500 to 1000 | CN(C)c1ccc(-c2nc(-c3ccc(Cl)cc3)c(CC(=O)O)s2)cn1 [Preparation Example 576] | A (A≧20>B≧10>C (minute))
10 | 500 to 1000 | CN1CCc2cc(-c3nc(CC(=O)O)c(-c4ccc(Cl)s4)o3)ccc21 [Preparation Example 453] | C (A≧20>B≧10>C (minute))
11 | 1000 to 3000 | Cc1nc2cc(-c3nc(CC(=O)O)c(-c4ccc(Cl)s4)o3)ccc2s1 [Preparation Example 459] | C (A≧20>B≧10>C (minute))
12 | 500 to 1000 | CN(C)c1ccc(-c2nc(-c3ccc(Cl)cc3)c(CC(=O)O)o2)cn1 [Preparation Example 514] | B (A≧20>B≧10>C (minute))
13 | 1000 to 3000 | CSc1ncc(-c2nc(CC(=O)O)c(-c3ccc(Cl)s3)o2)cn1 [Preparation Example 445] | A (A≧20>B≧10>C (minute))
14 | 1000 to 3000 | CN(C)c1ccc(-c2nc(CC(=O)O)c(-c3ccc(Cl)s3)o2)cc1 [Preparation Example 441] | B (A≧20>B≧10>C (minute))
15 | 1000 to 3000 | O=C(O)Cc1nc(-c2ccc(Cl)cc2)oc1-c1ccc(Br)s1 [Preparation Example 245] | C (A≧20>B≧10>C (minute))
16 | 500 to 1000 | CCOc1ccc(-c2nc(CC(=O)[O-])c(-c3ccc(Cl)s3)o2)cn1.[Na+] [Preparation Example 367, 2-(6-ethoxypyridin-3-yl)-5-(5-chlorothiophen-2-yl)oxazol-4-yl acetic acid sodium salt] | A (A≧20>B≧10>C (minute))
17 | 1000 to 3000 | Cn1ccc2cc(-c3nc(CC(=O)O)c(-c4ccc(Cl)s4)o3)ccc21 [Preparation Example 469] | B (A≧20>B≧10>C (minute))
18 | ≤ 500 | O=C(O)Cc1nc(-c2ccc3occc3c2)oc1-c1cccs1 [Preparation Example 269] | B (A≧20>B≧10>C (minute))
19 | 1000 to 3000 | CCCc1nc(-c2csc(Cl)c2)[nH]c1-c1ccccc1 [Preparation example 34] | A (A≧20>B≧10>C (minute))
20 | 500 to 1000 | O=C(O)Cc1nc(-c2ccccc2O)oc1-c1cccs1 [Preparation Example 277] | C (A≧20>B≧10>C (minute))
21 | 1000 to 3000 | CCNC(=O)Cc1nc(-c2ccc(F)cc2)oc1-c1ccsc1 [Preparation Example 616] | B (A≧20>B≧10>C (minute))
22 | ≤ 500 | COc1ccc(-c2nc(-c3ccc(Cl)cc3)c(CC(=O)O)o2)cc1 [Preparation Example 517] | C (A≧20>B≧10>C (minute))
23 | 1000 to 3000 | CCc1[nH]c(-c2ccsc2C(C)O)nc1-c1cccnc1.Cl.Cl (stereo not shown) [Preparation Example 486, 2-[2-(1-hydroxyethyl)thiophen-3-yl]-5-ethyl-4-(3-pyridyl)-imidazole dihydrochloride] | B (A≧20>B≧10>C (minute))
24 | ≤ 500 | O=C(O)Cc1nc(-c2cc3ccccc3s2)oc1-c1ccsc1 [Preparation Example 437] | B (A≧20>B≧10>C (minute))

Row | EC50 [1] [nM] | Structure (SMILES) | 100% inhibition time range [2]
25 | 500 to 1000 | O=C(O)Cc1nc(-c2ccc(F)cc2)oc1-c1ccc(F)cc1 [Preparation Example 235] | B (A≧20>B≧10>C (minute))
26 | ≤ 500 | Cc1cccc(-c2nc(CC(=O)O)c(-c3cccs3)o2)c1 [Preparation Example 432] | C (A≧20>B≧10>C (minute))
27 | 1000 to 3000 | O=C(O)Cc1sc(-c2ccc(F)cc2)nc1-c1ccc(Cl)c(F)c1 [Preparation Example 584] | A (A≧20>B≧10>C (minute))
28 | 1000 to 3000 | CCc1nc(-c2ccc(C#N)s2)[nH]c1-c1cccnc1 [Preparation example 16] | B (A≧20>B≧10>C (minute))
29 | 1000 to 3000 | O=C(O)Cc1nc(-c2ccc(F)cc2)oc1-c1ccc2occc2c1 [Preparation Example 285] | B (A≧20>B≧10>C (minute))
30 | 500 to 1000 | O=C(O)Cc1nc(-c2ccc(F)cc2)oc1-c1cccc(F)c1F [Preparation Example 252] | C (A≧20>B≧10>C (minute))
31 | ≤ 500 | Cc1cc(-c2nc(CC(=O)O)c(-c3ccc(Cl)s3)s2)sc1C [Preparation Example 612] | A (A≧20>B≧10>C (minute))
32 | ≤ 500 | COc1ccc(-c2nc(CC(=O)O)c(-c3ccc(Cl)s3)o2)cc1Cl [Preparation Example 280] | C (A≧20>B≧10>C (minute))
33 | ≤ 500 | O=C(O)Cc1nc(-c2cc3ccccc3s2)sc1-c1ccc(Cl)s1 [Preparation Example 610] | B (A≧20>B≧10>C (minute))
34 | 1000 to 3000 | O=C(O)Cc1nc(-c2cc3ccccc3s2)oc1-c1ccc(Cl)cc1 [Preparation Example 454] | A (A≧20>B≧10>C (minute))
35 | ≤ 500 | CSc1ccc(-c2nc(CC(=O)O)c(-c3ccc(Cl)s3)o2)cc1 [Preparation Example 281] | C (A≧20>B≧10>C (minute))
36 | ≤ 500 | O=C(O)Cc1nc(-c2ccc3occc3c2)oc1-c1csc(Cl)c1 [Preparation Example 287] | B (A≧20>B≧10>C (minute))
37 | ≤ 500 | Cc1ccc(-c2nc(CC(=O)O)c(-c3cccs3)o2)s1 [Preparation Example 268] | C (A≧20>B≧10>C (minute))
38 | 500 to 1000 | CN(C)c1ncc(-c2nc(-c3ccc(Cl)cc3)c(CC(=O)O)s2)cn1 [Preparation Example 601] | A (A≧20>B≧10>C (minute))
39 | 500 to 1000 | O=C([O-])Cc1oc(-c2ccc(F)cc2)nc1-c1ccc(Cl)s1.[Na+] [Preparation Example 487, 4-(5-chloro-thiophen-2-yl)-2-(4-fluorophenyl)oxazol-5-yl acetic acid sodium salt] | C (A≧20>B≧10>C (minute))
40 | 500 to 1000 | CSCc1nc(-c2ccc(C#N)cc2)[nH]c1-c1ccccc1 [Preparation example 132] | B (A≧20>B≧10>C (minute))
41 | 1000 to 3000 | O=C(O)/C=C/c1nc(-c2ccc(F)cc2)oc1-c1ccc(Cl)s1 [Preparation Example 626] | C (A≧20>B≧10>C (minute))
42 | ≤ 500 | Cc1cc(-c2oc(-c3ccc(F)cc3)nc2CC(=O)O)sc1Cl [Preparation Example 257] | B (A≧20>B≧10>C (minute))
43 | 1000 to 3000 | CCc1nc(-c2ccc(F)cc2)[nH]c1-c1ncccn1 [Preparation example 50] | C (A≧20>B≧10>C (minute))
44 | 1000 to 3000 | O=C(O)Cc1nc(-c2cc3ccc(F)cc3s2)oc1-c1ccc(Cl)s1 [Preparation Example 451] | B (A≧20>B≧10>C (minute))
45 | 500 to 1000 | CN(C)c1ncc(-c2nc(-c3ccc(Cl)s3)c(CC(=O)O)o2)cn1 [Preparation Example 512] | B (A≧20>B≧10>C (minute))
46 | 1000 to 3000 | O=C(O)Cc1sc(-c2cc3ccccc3s2)nc1-c1ccc(Cl)cc1 [Preparation Example 574] | B (A≧20>B≧10>C (minute))
47 | ≤ 500 | CCc1nc(-c2cccc(Cl)c2)[nH]c1-c1cccnc1 [Preparation example 13] | C (A≧20>B≧10>C (minute))
